US9428505B2, “Hydantoin derivative” (Chugai Seiyaku Kabushiki Kaisha, priority 2012, dated 2016)

Key:
TPTX rat model = experiment: Calcemic action in the TPTX rat model; format: in vivo; conditions: TPTX rats, oral 30 mg/kg; for change of serum Ca concentration from the Pre-value: up to 24 hours after administration
Experimental: Calcemic Action in the TPTX Rat Model
Four-week old female Crl:CD(SD) rats were obtained from Charles River Japan (Atsugi Breeding Center), and were acclimated to standard laboratory conditions of 20-26° C. and 35-75% humidity for one week. The rats were given tap water and were fed ad libitum with standard rodent chow (CE-2) (CLEA Japan, Inc.) containing 1.1% calcium, 1.0% phosphoric acid, and 250 IU/100 g of vitamin D3.
TPTX was performed on five-week old rats. Some of the individuals were subjected to sham operation (Sham). Individuals whose serum Ca concentration was less than 8 mg/dL on four days after the operation were selected for use as TPTX rats. On five days after the operation, the rats were assigned to eight TPTX groups and one Sham group (n=5, each group) based on their body weight and serum Ca concentration measured on four days after the operation. The solvent alone was orally administered to the Sham group and the TPTX-Vehicle group at a volume of 10 mL/kg. Each test article was orally administered individually to each TPTX test article group by dissolving it in a solvent at a dose of 30 mg/10 mL/kg. The solvent composition was 10% dimethylsulfoxide (Wako Pure Chemical Industries, Ltd.), 10% Cremophor EL (Sigma-Aldrich Japan LLC), 20% hydroxypropyl-β-cyclodextrin (Nihon Shokuhin Kako Co., Ltd.), glycine (Wako Pure Chemical Industries, Ltd.); and the pH was adjusted to 10. Immediately before administration of each sample, Pre-blood collection was performed, and blood collection was carried out at 2, 6, 10, and 24 hours after administration to measure the serum Ca concentration. Each blood collection was carried out from the jugular vein under isoflurane inhalation anesthesia.
Serum Ca measurement: Serum obtained by centrifugation from the collected blood was measured by using an automatic analyzer TBA-120FR (Toshiba Medical Systems Corporation).
For statistical analysis of the animal studies, data are shown as mean±standard error (SE). Statistical analysis were performed by unpaired test of the SAS Preclinical Package (Ver. 5.00.010720, SAS Institute Japan, Tokyo, Japan).

[1] = Metabolic stability using human liver microsomes; format: in vitro ADME; conditions: pH 7.4; human liver microsomes 0.5 mg/mL, compound 1 μM, NADPH 1 mM, 37° C.; read-out: Clearance
Experimental: Examination of Metabolic Stability Using Human Liver Microsomes
In 0.1 M phosphate buffer (pH7.4), human liver microsomes were incubated with a compound or a comparative example in the coexistence of NADPH at 37° C. for a specified amount of time. The concentration of the parent compound at each reaction time was measured using LC/MS/MS, and inherent clearance (μL/min/mg protein) was calculated from the slope of the reaction time versus residual rate.
(§1) Compound concentration: 1 μM
Reaction time: 0, 5, 15, and 30 minutes

[2] = Metabolic stability using rat hepatocyte; format: in vitro ADME; conditions: for hepatocyte CLint at 1 μM: rat (SD, female) hepatocytes 1×10^6 cells/mL, compound 1 μM, 37° C., read-out: Clearance; for rat hepatocyte metabolic stability compared to Comparative Examples 1, 2, 3, 5, and 6: rat hepatocytes
Experimental: Examination of Metabolic Stability Using Rat Hepatocyte
Liver cells were prepared from the liver of rats (SD, female) by a collagenase perfusion method. A compound of the Examples or a Comparative Example was added, and this was incubated at 37° C. for a specified amount of time, followed by addition of a reaction-stopping solution. The concentration of the parent compound at each reaction time was measured using LC/MS/MS, and inherent clearance (μL/10^6 cells/min) was calculated from the slope of the reaction time versus residual rate.
Cell concentration: 1×10^6 cells/mL
as §1
Medium: Williams' medium E
Reaction-stopping solution: acetonitrile/2-propanol (4/6, v/v)

human PTH1R = human PTH1R (Homo sapiens (Human), UniProt Q03431); experiment: In vitro cAMP signal activity via the human PTH1R (HKRK-B7 cells); format: cell-based; conditions: 100 nM human PTH(1-34) = 100%; for EC20: concentration giving 20% cAMP signaling activity; for EC50: concentration giving 50% cAMP signaling activity
Sequence of human PTH1R (Q03431 27-593): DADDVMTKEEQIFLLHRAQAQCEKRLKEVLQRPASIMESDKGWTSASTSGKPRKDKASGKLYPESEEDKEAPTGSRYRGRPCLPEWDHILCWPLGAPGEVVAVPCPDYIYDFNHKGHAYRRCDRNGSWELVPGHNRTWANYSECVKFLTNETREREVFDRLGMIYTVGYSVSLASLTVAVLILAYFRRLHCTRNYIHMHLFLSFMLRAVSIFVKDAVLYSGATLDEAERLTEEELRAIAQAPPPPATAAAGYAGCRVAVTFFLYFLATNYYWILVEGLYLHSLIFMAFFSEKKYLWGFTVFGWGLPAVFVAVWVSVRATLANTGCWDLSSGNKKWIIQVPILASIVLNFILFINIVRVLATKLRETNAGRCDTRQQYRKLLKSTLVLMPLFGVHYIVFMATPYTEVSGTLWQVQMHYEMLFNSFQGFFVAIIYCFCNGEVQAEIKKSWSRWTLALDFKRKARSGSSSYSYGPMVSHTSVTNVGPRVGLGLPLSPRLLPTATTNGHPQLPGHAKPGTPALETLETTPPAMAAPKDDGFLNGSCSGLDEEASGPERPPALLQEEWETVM
Experimental: Measurement of In Vitro cAMP Signal Activity of Compounds Via the Human PTH1R
Human PTH(1-34) and calcitonin were purchased from Peptide Institute, Inc. (Osaka, Japan), dissolved in 10 mM acetic acid to 1 mM and stored in a −80° C. freezer.
Cells were cultured in Dulbecco's modified Eagle's medium (DMEM) supplemented with 10% fetal bovine serum (Hyclone), 100 units/ml penicillin G and 100 μg/ml streptomycin sulfate (Invitrogen Corp) at 37° C. in a humidified atmosphere containing 5% CO2.
cAMP signal transduction analysis utilized LLC-PK1 cells not expressing the PTH1R, and HKRK-B7 cells, that is, LLC-PK1 cells overexpressing the human PTH1R at 9.5×10^5 receptors/cell (Takasu et al., J. Bone. Miner. Res. 14:11-20, 1999).
HKRK-B7 or LLC-PK1 cells were seeded into a 96-well plate at 1×10^5 cells/well and incubated overnight. On the following day, 50 μl of cAMP assay buffer (DMEM, 2 mM IBMX, 0.2 mg/ml bovine serum albumin, 35 mM Hepes-NaOH, pH 7.4) containing human PTH(1-34) or each compound was added and the plate was placed in a 37° C. incubator. The cells were incubated for 20 minutes. After removing the medium, the cells were washed with 100 μl of cAMP assay buffer once. The plate was placed on dry ice powder to freeze the cells and then removed from the dry ice. The cells were lysed with 40 μl of 50 mM HCl and frozen again on dry ice. The amount of intracellular cAMP produced was measured using a commercially available cAMP EIA kit (Biotrack cAMP EIA system, GE health care).
Analyses were performed using a variable gradient S-shaped dose-response curve equation.

SMILES	achievement of therapeutic target range of serum Ca concentration of 7.6 to 8.8 mg/dL (TPTX rat model)	change of serum Ca concentration from the Pre-value (TPTX rat model)	microsomal CLint at 1 μM [1] [µL/min/mg]	hepatocyte CLint at 1 μM [2] [µL/min/1e6 cells]	EC20 (human PTH1R) [µM]	EC50 (human PTH1R) [µM]	rat hepatocyte metabolic stability compared to Comparative Examples 1, 2, 3, 5, and 6 [2]
Cc1cc(N2C(=O)CNC2=O)cc(C)c1CCS(=O)(=O)N1CCC2(CC1)N=C(c1cccc(OC(F)(F)F)c1)NC2=O [Comparative Example 2, reference compound]	could not be achieved	smaller positive changes from the Pre-value	61	5.9	3.1	13	–
Cc1cc(N2C(=O)CNC2=O)cc(C)c1CCS(=O)(=O)N1CCC2(CC1)N=C(c1ccc(F)c(C(F)(F)F)c1)NC2=O [Comparative Example 3, reference compound]	–	–	74	22	2.0	9	–
CCC1CCC(C2=NC3(CCN(S(=O)(=O)CCc4ccc(N5CC(=O)NC5=O)cc4C)CC3)C(=O)N2)CC1 (centres unmarked) [Comparative Example 4, reference compound]	–	–	74	–	>505	–	–
CC[C@H]1CC[C@H](C2=NC3(CCN(S(=O)(=O)CCc4ccc(N5CC(=O)NC5=O)cc4C)CC3)C(=O)N2)CC1 [Comparative Example 4, reference compound]	–	–	–	–	–	> 1000	–
CCC1CCC(C2=NC3(CCN(S(=O)(=O)CCc4ccc(N5C(=O)NC(=O)C5C)cc4C)CC3)C(=O)N2)CC1 (centres unmarked) [Comparative Example 5, reference compound]	–	–	112	22	3.1	–	–
CC[C@H]1CC[C@H](C2=NC3(CCN(S(=O)(=O)CCc4ccc(N5C(=O)NC(=O)C5C)cc4C)CC3)C(=O)N2)CC1 (some centres unmarked) [Comparative Example 5, reference compound]	–	–	–	–	–	25	–
CCC1CCC(C2=NC3(CCN(S(=O)(=O)CCc4ccc(N5C(=O)NC(=O)C5(C)C)cc4C)CC3)C(=O)N2)CC1 (centres unmarked) [Comparative Example 6, reference compound]	–	–	154	22	3.6	–	–
CC[C@H]1CC[C@H](C2=NC3(CCN(S(=O)(=O)CCc4ccc(N5C(=O)NC(=O)C5(C)C)cc4C)CC3)C(=O)N2)CC1 [Comparative Example 6, reference compound]	–	–	–	–	–	32	–
Cc1cc(N2C(=O)NC(=O)C2(C)C)cc(C)c1CCS(=O)(=O)N1CCC2(CC1)N=C(c1ccc(F)c(OC(F)(F)F)c1)NC2=O [Compound 1, 1-(4-(2-((2-(4-fluoro-3-(trifluoromethoxy)phenyl)-4-oxo-1,3,8-triazaspiro[4.5]deca-1-en-8-yl)sulfonyl)ethyl)-3,5-dimethylphenyl)-5,5-dimethylimidazolidine-2,4-dione]	could not be achieved	smaller positive changes from the Pre-value	21	7.6	1.3	5.8	–
Cc1cc(N2C(=O)NC(=O)C2(C)C)cc(C)c1CCS(=O)(=O)N1CCC2(CC1)N=C(c1cccc(Br)c1)NC2=O [Compound 2, 1-(4-(2-((2-(3-bromophenyl)-4-oxo-1,3,8-triazaspiro[4.5]deca-1-en-8-yl)sulfonyl)ethyl)-3,5-dimethylphenyl)-5,5-dimethylimidazolidine-2,4-dione]	–	–	38	3	2.4	14	increased
Cc1cc(N2C(=O)NC(=O)C2(C)C)cc(C)c1CCS(=O)(=O)N1CCC2(CC1)N=C(c1ccc(F)c(C(F)(F)F)c1)NC2=O [Compound 3, 1-(4-(2-((2-(4-fluoro-3-(trifluoromethyl)phenyl)-4-oxo-1,3,8-triazaspiro[4.5]deca-1-en-8-yl)sulfonyl)ethyl)-3,5-dimethylphenyl)-5,5-dimethylimidazolidine-2,4-dione]	–	–	29	17	–	–	–
Cc1cc(N2C(=O)NC(=O)C2(C)C)cc(C)c1CCS(=O)(=O)N1CCC2(CC1)N=C(c1ccc(OC(F)(F)F)c(F)c1)NC2=O [Compound 4, 1-(4-(2-((2-(3-fluoro-4-(trifluoromethoxy)phenyl)-4-oxo-1,3,8-triazaspiro[4.5]deca-1-en-8-yl)sulfonyl)ethyl)-3,5-dimethylphenyl)-5,5-dimethylimidazolidine-2,4-dione]	–	–	27	2.2	1.6	7.4	increased
Cc1cc(N2C(=O)NC(=O)C2(C)C)cc(C)c1CCS(=O)(=O)N1CCC2(CC1)N=C(c1ccc3c(c1)OC(F)(F)O3)NC2=O [Compound 5, 1-(4-(2-((2-(2,2-difluorobenzo[d][1,3]dioxol-5-yl)-4-oxo-1,3,8-triazaspiro[4.5]deca-1-en-8-yl)sulfonyl)ethyl)-3,5-dimethylphenyl)-5,5-dimethylimidazolidine-2,4-dione]	–	–	37	1	1.7	8.1	increased
Cc1cc(N2C(=O)NC(=O)C23CCN(C)CC3)cc(C)c1CCS(=O)(=O)N1CCC2(CC1)N=C(c1ccc(OC(F)(F)F)cc1)NC2=O [Compound 9, 1-(3,5-dimethyl-4-(2-((4-oxo-2-(4-(trifluoromethoxy)phenyl)-1,3,8-triazaspiro[4.5]deca-1-en-8-yl)sulfonyl)ethyl)phenyl)-8-methyl-1,3,8-triazaspiro[4.5]decane-2,4-dione]	–	–	28	1.8	2.6	12	increased
Cc1cc(N2C(=O)NC(=O)C23CCCC3)cc(C)c1CCS(=O)(=O)N1CCC2(CC1)N=C(c1cccc(C(F)(F)F)c1)NC2=O [Compound 12, 1-(3,5-dimethyl-4-(2-((4-oxo-2-(3-(trifluoromethyl)phenyl)-1,3,8-triazaspiro[4.5]deca-1-en-8-yl)sulfonyl)ethyl)phenyl)-1,3-diazaspiro[4.4]nonane-2,4-dione]	–	–	63	–	–	–	–
